{"source": "ChEMBL document CHEMBL3526057", "about": "(Drug Metab Dispos, 2011)", "assay_type_in_all_cases": "ADME", "key": {"Cytochrome P450 2C19 [1]": {"target": "T1, Cytochrome P450 2C19 (Homo sapiens, UniProt P33261, P227L)", "experiment": "Activity of human recombinant CYP2C19.10 mutant expressed in Saccharomyces cerevisiae BJ5457 assessed as omeprazole 5'-hydroxylation per pmol protein at 100 uM after 60 mins", "settings": "recombinant enzyme, 1 h"}, "Cytochrome P450 2C19 [2]": {"target": "Cytochrome P450 2C19 (Homo sapiens, UniProt P33261, L17P)", "experiment": "Activity of human recombinant CYP2C19.14 mutant expressed in Saccharomyces cerevisiae BJ5457 assessed as omeprazole 5'-hydroxylation per pmol protein at 100 uM after 60 mins", "settings": "recombinant enzyme, 1 h"}, "Cytochrome P450 2C19 [3]": {"target": "T2, Cytochrome P450 2C19 (Homo sapiens, UniProt P33261, I19L)", "experiment": "Activity of human recombinant CYP2C19.15 mutant expressed in Saccharomyces cerevisiae BJ5457 assessed as omeprazole 5'-hydroxylation per pmol protein at 100 uM after 60 mins", "settings": "recombinant enzyme, 1 h"}, "Cytochrome P450 2C19 [4]": {"target": "T3, Cytochrome P450 2C19 (Homo sapiens, UniProt P33261, S51G)", "experiment": "Activity of human recombinant CYP2C19.19 mutant expressed in Saccharomyces cerevisiae BJ5457 assessed as omeprazole 5'-hydroxylation per pmol protein at 100 uM after 60 mins", "settings": "recombinant enzyme, 1 h"}, "Cytochrome P450 2C19 [5]": {"target": "Cytochrome P450 2C19 (Homo sapiens, UniProt P33261, A161P)", "experiment": "Activity of human recombinant CYP2C19 A161P mutant expressed in Saccharomyces cerevisiae BJ5457 assessed as omeprazole 5'-hydroxylation per pmol protein at 100 uM after 60 mins", "settings": "recombinant enzyme, 1 h"}, "Cytochrome P450 2C19 [6]": {"target": "T4, Cytochrome P450 2C19 (Homo sapiens, UniProt P33261, E122A)", "experiment": "Activity of human recombinant CYP2C19 E122A mutant expressed in Saccharomyces cerevisiae BJ5457 assessed as omeprazole 5'-hydroxylation per pmol protein at 100 uM after 60 mins", "settings": "recombinant enzyme, 1 h"}, "Cytochrome P450 2C19 [7]": {"target": "T5, Cytochrome P450 2C19 (Homo sapiens, UniProt P33261)", "experiment": "Activity of human recombinant CYP2C19.1A mutant expressed in Saccharomyces cerevisiae BJ5457 assessed asomeprazole 5'-hydroxylation after 60 mins", "settings": "recombinant enzyme, 1 h"}, "Cytochrome P450 2C19 [8]": {"target": "T5, Cytochrome P450 2C19", "experiment": "Activity of human recombinant CYP2C19.1B mutant expressed in Saccharomyces cerevisiae BJ5457 assessed asomeprazole 5'-hydroxylation after 60 mins", "settings": "recombinant enzyme, 1 h"}, "Cytochrome P450 2C19 [9]": {"target": "T6, Cytochrome P450 2C19 (Homo sapiens, UniProt P33261, R144H)", "experiment": "Activity of human recombinant CYP2C19.9 mutant expressed in Saccharomyces cerevisiae BJ5457 assessed asomeprazole 5'-hydroxylation after 60 mins", "settings": "recombinant enzyme, 1 h"}, "Cytochrome P450 2C19 [10]": {"target": "T1, Cytochrome P450 2C19", "experiment": "Activity of human recombinant CYP2C19.10 mutant expressed in Saccharomyces cerevisiae BJ5457 assessed asomeprazole 5'-hydroxylation after 60 mins", "settings": "recombinant enzyme, 1 h"}, "Cytochrome P450 2C19 [11]": {"target": "Cytochrome P450 2C19 (Homo sapiens, UniProt P33261, R410C)", "experiment": "Activity of human recombinant CYP2C19.13 mutant expressed in Saccharomyces cerevisiae BJ5457 assessed asomeprazole 5'-hydroxylation after 60 mins", "settings": "recombinant enzyme, 1 h"}, "[12]": {"target": "CYP2C19.19 (CYP2C19 variant) (Homo sapiens, UniProt P33261, S51G)", "experiment": "Activity of human recombinant CYP2C19.19 mutant expressed in Saccharomyces cerevisiae BJ5457 assessed asomeprazole 5'-hydroxylation after 60 mins", "settings": "probe omeprazole (5'-hydroxylation)"}, "Cytochrome P450 2C19 [13]": {"target": "Cytochrome P450 2C19 (Homo sapiens, UniProt P33261, F168L)", "experiment": "Activity of human recombinant CYP2C19 F168L mutant expressed in Saccharomyces cerevisiae BJ5457 assessed asomeprazole 5'-hydroxylation after 60 mins", "settings": "recombinant enzyme, 1 h"}, "Cytochrome P450 2C19 [14]": {"target": "T6, Cytochrome P450 2C19", "experiment": "Activity of human recombinant CYP2C19.9 mutant expressed in Saccharomyces cerevisiae BJ5457 assessed asomeprazole 5'-hydroxylation per pmol protein after 60 mins", "settings": "recombinant enzyme, 1 h"}, "Cytochrome P450 2C19 [15]": {"target": "T1, Cytochrome P450 2C19", "experiment": "Activity of human recombinant CYP2C19.10 mutant expressed in Saccharomyces cerevisiae BJ5457 assessed asomeprazole 5'-hydroxylation per pmol protein after 60 mins", "settings": "recombinant enzyme, 1 h"}, "Cytochrome P450 2C19 [16]": {"target": "T7, Cytochrome P450 2C19 (Homo sapiens, UniProt P33261, R150H)", "experiment": "Activity of human recombinant CYP2C19.11 mutant expressed in Saccharomyces cerevisiae BJ5457 assessed asomeprazole 5'-hydroxylation per pmol protein after 60 mins", "settings": "recombinant enzyme, 1 h"}, "Cytochrome P450 2C19 [17]": {"target": "T5, Cytochrome P450 2C19", "experiment": "Activity of human recombinant CYP2C19.1A mutant expressed in Saccharomyces cerevisiae BJ5457 assessed as omeprazole 5'-hydroxylation per pmol protein at 5 uM after 60 mins", "settings": "recombinant enzyme, 1 h"}, "Cytochrome P450 2C19 [18]": {"target": "T6, Cytochrome P450 2C19", "experiment": "Activity of human recombinant CYP2C19.9 mutant expressed in Saccharomyces cerevisiae BJ5457 assessed as omeprazole 5'-hydroxylation per pmol protein at 5 uM after 60 mins", "settings": "recombinant enzyme, 1 h"}, "Cytochrome P450 2C19 [19]": {"target": "T1, Cytochrome P450 2C19", "experiment": "Activity of human recombinant CYP2C19.10 mutant expressed in Saccharomyces cerevisiae BJ5457 assessed as omeprazole 5'-hydroxylation per pmol protein at 5 uM after 60 mins", "settings": "recombinant enzyme, 1 h"}, "Cytochrome P450 2C19 [20]": {"target": "T8, Cytochrome P450 2C19 (Homo sapiens, UniProt P33261, V331I/R442C)", "experiment": "Activity of human recombinant CYP2C19.16 mutant expressed in Saccharomyces cerevisiae BJ5457 assessed as omeprazole 5'-hydroxylation per pmol protein at 5 uM after 60 mins", "settings": "recombinant enzyme, 1 h"}, "Cytochrome P450 2C19 [21]": {"target": "T3, Cytochrome P450 2C19", "experiment": "Activity of human recombinant CYP2C19.19 mutant expressed in Saccharomyces cerevisiae BJ5457 assessed as omeprazole 5'-hydroxylation per pmol protein at 5 uM after 60 mins", "settings": "recombinant enzyme, 1 h"}, "Cytochrome P450 2C19 [22]": {"target": "Cytochrome P450 2C19 (Homo sapiens, UniProt P33261, R433W)", "experiment": "Activity of human recombinant CYP2C19.5B mutant expressed in Saccharomyces cerevisiae BJ5457 assessed as omeprazole 5'-hydroxylation per pmol protein at 100 uM after 60 mins", "settings": "recombinant enzyme, 1 h"}, "[23]": {"experiment": "Activity of human recombinant CYP2C19.6 mutant expressed in Saccharomyces cerevisiae BJ5457 assessed as omeprazole 5'-hydroxylation per pmol protein at 100 uM after 60 mins", "settings": "recombinant enzyme, 1 h"}, "Cytochrome P450 2C19 [24]": {"target": "T2, Cytochrome P450 2C19", "experiment": "Activity of human recombinant CYP2C19.15 mutant expressed in Saccharomyces cerevisiae BJ5457 assessed asomeprazole 5'-hydroxylation per pmol protein after 60 mins", "settings": "recombinant enzyme, 1 h"}, "Cytochrome P450 2C19 [25]": {"target": "T8, Cytochrome P450 2C19", "experiment": "Activity of human recombinant CYP2C19.16 mutant expressed in Saccharomyces cerevisiae BJ5457 assessed asomeprazole 5'-hydroxylation per pmol protein after 60 mins", "settings": "recombinant enzyme, 1 h"}, "Cytochrome P450 2C19 [26]": {"target": "Cytochrome P450 2C19 (Homo sapiens, UniProt P33261, D360N)", "experiment": "Activity of human recombinant CYP2C19 D360N mutant expressed in Saccharomyces cerevisiae BJ5457 assessed asomeprazole 5'-hydroxylation per pmol protein after 60 mins", "settings": "recombinant enzyme, 1 h"}, "Cytochrome P450 2C19 [27]": {"target": "T1, Cytochrome P450 2C19", "experiment": "Activity of human recombinant CYP2C19.10 mutant expressed in Saccharomyces cerevisiae BJ5457 assessed as intrinisic clearance foromeprazole 5'-hydroxylation per pmol protein after 60 mins", "settings": "recombinant enzyme, 1 h"}, "Cytochrome P450 2C19 [28]": {"target": "T7, Cytochrome P450 2C19", "experiment": "Activity of human recombinant CYP2C19.11 mutant expressed in Saccharomyces cerevisiae BJ5457 assessed as intrinisic clearance foromeprazole 5'-hydroxylation per pmol protein after 60 mins", "settings": "recombinant enzyme, 1 h"}, "Cytochrome P450 2C19 [29]": {"target": "Cytochrome P450 2C19 (Homo sapiens, UniProt P33261, R329H)", "experiment": "Activity of human recombinant CYP2C19.18 mutant expressed in Saccharomyces cerevisiae BJ5457 assessed as intrinisic clearance foromeprazole 5'-hydroxylation per pmol protein after 60 mins", "settings": "recombinant enzyme, 1 h"}, "Cytochrome P450 2C19 [30]": {"target": "Cytochrome P450 2C19 (Homo sapiens, UniProt P33261, M74T)", "experiment": "Activity of human recombinant CYP2C19 M74T mutant expressed in Saccharomyces cerevisiae BJ5457 assessed as intrinisic clearance foromeprazole 5'-hydroxylation per pmol protein after 60 mins", "settings": "recombinant enzyme, 1 h"}, "Cytochrome P450 2C19 [31]": {"target": "T4, Cytochrome P450 2C19", "experiment": "Activity of human recombinant CYP2C19 E122A mutant expressed in Saccharomyces cerevisiae BJ5457 assessed as intrinisic clearance foromeprazole 5'-hydroxylation per pmol protein after 60 mins", "settings": "recombinant enzyme, 1 h"}}}
{"molecule": "COc1ccc2[nH]c([S+]([O-])Cc3ncc(C)c(OC)c3C)nc2c1", "note": "(stereo unspecified) [OMEPRAZOLE]", "values": [{"measurement": "Drug metabolism", "setting": "Cytochrome P450 2C19 [1]", "value": 5, "unit": "pmol/min"}, {"measurement": "Drug metabolism", "setting": "Cytochrome P450 2C19 [2]", "value": 8.25, "unit": "pmol/min"}, {"measurement": "Drug metabolism", "setting": "Cytochrome P450 2C19 [3]", "value": 7.81, "unit": "pmol/min"}, {"measurement": "Drug metabolism", "setting": "Cytochrome P450 2C19 [4]", "value": 8.65, "unit": "pmol/min"}, {"measurement": "Drug metabolism", "setting": "Cytochrome P450 2C19 [5]", "value": 1.39, "unit": "pmol/min"}, {"measurement": "Drug metabolism", "setting": "Cytochrome P450 2C19 [6]", "value": 4.71, "unit": "pmol/min"}, {"measurement": "Km", "setting": "Cytochrome P450 2C19 [7]", "value": 5.42, "unit": "µM"}, {"measurement": "Km", "setting": "Cytochrome P450 2C19 [8]", "value": 4.16, "unit": "µM"}, {"measurement": "Km", "setting": "Cytochrome P450 2C19 [9]", "value": 10.1, "unit": "µM"}, {"measurement": "Km", "setting": "Cytochrome P450 2C19 [10]", "value": 10.6, "unit": "µM"}, {"measurement": "Km", "setting": "Cytochrome P450 2C19 [11]", "value": 4.87, "unit": "µM"}, {"measurement": "Km at 1 h", "setting": "[12]", "value": 14.5, "unit": "µM"}, {"measurement": "Km", "setting": "Cytochrome P450 2C19 [13]", "value": 6.56, "unit": "µM"}, {"measurement": "Vmax", "setting": "Cytochrome P450 2C19 [14]", "value": 6.21, "unit": "pmol/min"}, {"measurement": "Vmax", "setting": "Cytochrome P450 2C19 [15]", "value": 5.35, "unit": "pmol/min"}, {"measurement": "Vmax", "setting": "Cytochrome P450 2C19 [16]", "value": 8.34, "unit": "pmol/min"}, {"measurement": "Drug metabolism", "setting": "Cytochrome P450 2C19 [17]", "value": 2.75, "unit": "pmol/min"}, {"measurement": "Drug metabolism", "setting": "Cytochrome P450 2C19 [18]", "value": 1.95, "unit": "pmol/min"}, {"measurement": "Drug metabolism", "setting": "Cytochrome P450 2C19 [19]", "value": 1.94, "unit": "pmol/min"}, {"measurement": "Drug metabolism", "setting": "Cytochrome P450 2C19 [20]", "value": 0.65, "unit": "pmol/min"}, {"measurement": "Drug metabolism", "setting": "Cytochrome P450 2C19 [21]", "value": 2.82, "unit": "pmol/min"}, {"measurement": "Drug metabolism", "setting": "Cytochrome P450 2C19 [22]", "value": "metabolite_not_detected"}, {"measurement": "Drug metabolism", "setting": "[23]", "value": "metabolite_not_detected"}, {"measurement": "Vmax", "setting": "Cytochrome P450 2C19 [24]", "value": 8.18, "unit": "pmol/min"}, {"measurement": "Vmax", "setting": "Cytochrome P450 2C19 [25]", "value": 1.68, "unit": "pmol/min"}, {"measurement": "Vmax", "setting": "Cytochrome P450 2C19 [26]", "value": 4.11, "unit": "pmol/min"}, {"measurement": "CL", "setting": "Cytochrome P450 2C19 [27]", "value": 0.5, "unit": "µL/min"}, {"measurement": "CL", "setting": "Cytochrome P450 2C19 [28]", "value": 1.68, "unit": "µL/min"}, {"measurement": "CL", "setting": "Cytochrome P450 2C19 [29]", "value": 1.3, "unit": "µL/min"}, {"measurement": "CL", "setting": "Cytochrome P450 2C19 [30]", "value": 1.11, "unit": "µL/min"}, {"measurement": "CL", "setting": "Cytochrome P450 2C19 [31]", "value": 0.4, "unit": "µL/min"}]}
